Results from PubChem BioAssay (NCI).
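The compound was tested at five concentrations on cells cultured in 96-well plates, with a 48-hour exposure period. TGI: total growth inhibition.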

Columns and labels:
Experiment in all cases: NCI tumour cell line growth inhibition, 48 h
NCI-H23 lung = system: NCI-H23 lung
RPMI-8226 leukemia = system: RPMI-8226 leukemia
HCC-2998 colon = system: HCC-2998 colon
NCI-H226 lung = system: NCI-H226 lung
SW-620 colon = system: SW-620 colon
HCT-116 colon = system: HCT-116 colon
SNB-19 CNS = system: SNB-19 CNS
UO-31 renal = system: UO-31 renal
UACC-62 melanoma = system: UACC-62 melanoma
A498 renal = system: A498 renal
HOP-18 NSCLC = system: HOP-18 NSCLC
SK-MEL-2 melanoma = system: SK-MEL-2 melanoma
KM12 colon = system: KM12 colon
OVCAR-4 ovarian = system: OVCAR-4 ovarian
MOLT-4 leukemia = system: MOLT-4 leukemia
A549 NSCLC = system: A549 NSCLC
K-562 leukemia = system: K-562 leukemia
SNB-75 CNS = system: SNB-75 CNS
SF-539 CNS = system: SF-539 CNS
NCI/ADR-RES ovarian = system: NCI/ADR-RES ovarian
HT29 colon = system: HT29 colon
KM20L2 colon = system: KM20L2 colon
DMS 273 small cell lung = system: DMS 273 small cell lung
MCF7 breast = system: MCF7 breast
SNB-78 CNS = system: SNB-78 CNS
XF 498 CNS = system: XF 498 CNS
RXF 393 renal = system: RXF 393 renal
IGROV1 ovarian = system: IGROV1 ovarian
P388/ADR leukemia = system: P388/ADR leukemia
SK-MEL-28 melanoma = system: SK-MEL-28 melanoma
SK-OV-3 ovarian = system: SK-OV-3 ovarian
CCRF-CEM leukemia = system: CCRF-CEM leukemia
NCI-H460 lung = system: NCI-H460 lung
SN12C renal = system: SN12C renal
U251 CNS = system: U251 CNS
OVCAR-8 ovarian = system: OVCAR-8 ovarian
HL-60(TB) leukemia = system: HL-60(TB) leukemia
DLD-1 colon = system: DLD-1 colon
COLO 205 colon = system: COLO 205 colon
EKVX NSCLC = system: EKVX NSCLC
OVCAR-5 ovarian = system: OVCAR-5 ovarian
OVCAR-3 ovarian = system: OVCAR-3 ovarian
NCI-H522 lung = system: NCI-H522 lung
SF-268 CNS = system: SF-268 CNS
P388 leukemia = system: P388 leukemia
DMS 114 small cell lung = system: DMS 114 small cell lung
UACC-257 melanoma = system: UACC-257 melanoma
SK-MEL-5 melanoma = system: SK-MEL-5 melanoma
LOX IMVI melanoma = system: LOX IMVI melanoma
M19-MEL melanoma = system: M19-MEL melanoma
HOP-62 NSCLC = system: HOP-62 NSCLC
SN12K1 renal = system: SN12K1 renal
MALME-3M melanoma = system: MALME-3M melanoma
HCT-15 colon = system: HCT-15 colon
SF-295 CNS = system: SF-295 CNS

Measured: TGI

O=C(NC/C=C/CO)c1ccccc1
> 100 µM: NCI-H23 lung | RPMI-8226 leukemia | HCC-2998 colon | NCI-H226 lung | SW-620 colon | HCT-116 colon | SNB-19 CNS | UO-31 renal | UACC-62 melanoma | A498 renal | HOP-18 NSCLC | SK-MEL-2 melanoma | KM12 colon | OVCAR-4 ovarian | MOLT-4 leukemia | A549 NSCLC | K-562 leukemia | SNB-75 CNS | SF-539 CNS | NCI/ADR-RES ovarian | HT29 colon | KM20L2 colon | DMS 273 small cell lung | MCF7 breast | SNB-78 CNS | XF 498 CNS | RXF 393 renal | IGROV1 ovarian | P388/ADR leukemia | SK-MEL-28 melanoma | SK-OV-3 ovarian | CCRF-CEM leukemia | NCI-H460 lung | SN12C renal | U251 CNS | OVCAR-8 ovarian | HL-60(TB) leukemia | DLD-1 colon | COLO 205 colon | EKVX NSCLC | OVCAR-5 ovarian | OVCAR-3 ovarian | NCI-H522 lung | SF-268 CNS | P388 leukemia | DMS 114 small cell lung | UACC-257 melanoma | SK-MEL-5 melanoma | LOX IMVI melanoma | M19-MEL melanoma | HOP-62 NSCLC | SN12K1 renal | MALME-3M melanoma | HCT-15 colon | SF-295 CNS
